Experimental data published in patent US7741521B2, “Inhibition of bid-induced cell-death using small organic molecules” (The Burnham Institute, priority 2004, dated 2010).

What was measured:
[1] = test system: primary hippocampal neurons; test: Glutamate-induced cell death in primary hippocampal neurons; assay type: cell-based
Protocol: Primary cultures were obtained from embryonic day 18 rats and cultured in Neurobasal medium (Invitrogen, Karlsruhe, Germany) supplemented with 5 mM HEPES, 1.2 mM glutamine, B27 supplement (Invitrogen, 20 ml/l) and gentamicin (0.1 mg/ml) as described in the art. Glutamate (20 μM) was added in 9-10 day old cultures in EBSS medium (6800 mg/L NaCl, 400 mg/L KCl, 264 mg/L CaCl2×2H2O, 200 mg/L MgCl2×7H2O, 2200 mg/L NaHCO3, 140 mg/L NaH2PO4×H2O, 10 mM glucose, pH 7.2).
Neuronal cell death was quantified after staining the nuclei with the DNA-binding fluorochrome Hoechst 33258 (Molecular Probes) or by the MTT assay. Immunocytochemistry was performed as described in the art, with a polyclonal anti-AIF antibody (sc-9416, Santa Cruz; 1:200) followed by incubation a biotinylated anti-goat IgG antibody (1:200) Vector Laboratories) and Oregon Green-streptavidin (Molecular Probes). […]
To assess whether the compounds of the present invention would also prevent neuronal cell death in primary cultures, a number of cell-based assays were performed. […] Twenty-four hours later, apoptotic nuclei were quantified after staining with Hoechst 33342. In a separate experiment (FIG. 11C), the protective effect of Compound I against glutamate-induced cell death was quantified by the MTT assay. […]

[2] = test system: rat embryonic cortical neurons; test: Nuclear translocation of AIF in neurons exposed to glutamate; assay type: cell-based; details: glutamate 20 μM, 8 h
Protocol: Neuronal cell death was quantified after staining the nuclei with the DNA-binding fluorochrome Hoechst 33258 (Molecular Probes) or by the MTT assay. Immunocytochemistry was performed as described in the art, with a polyclonal anti-AIF antibody (sc-9416, Santa Cruz; 1:200) followed by incubation a biotinylated anti-goat IgG antibody (1:200) Vector Laboratories) and Oregon Green-streptavidin (Molecular Probes). After counterstaining with Hoechst 33342 images were acquired using a confocal laser scanning microscope (Axiovert, Zeiss) with a 60× oil immersion objective (514-nm excitation and 535-nm emission for detection of Oregon Green and 352-nm excitation and 460-nm emission for detection of Hoechst 33342).
Pretreatment with Compound I preserves nuclear morphology (blue fluorescence, Hoechst 33342) and prevents AIF translocation. […] Mean values and SD of 4 dishes per group are presented.

[3] = test system: HeLa cells transfected with a plasmid encoding tBID; test: Effector caspase activity in lysates of tBID-transfected cells; assay type: cell-based
Protocol: (§1) HEK 293T cells were transfected with 0.5 μg of plasmids encoding either GFP or GFP-tBID in 12 wells plate. After 3 hours transfection, various compounds were added in DMSO to the media. After 20 hours of further incubation, cells were collected and either lysed for caspase assays or fixed and stained with DAPI for determination of apoptosis^50. For caspase activity assays, 293T cells were lysed in lysis buffer (10 mM Hepes, pH 7.4, 142.2 mM KCl, 5 mM MgCl2, 0.5 mM EDTD, 0.5% NP-40) containing a protease inhibitor mixture (Roche Molecular Biochemicals). The lysates were normalized for protein concentration (10 μg), then incubated with 100 μM DEVD-AFC. Enzyme activity was determined by the release of AFC-fluorescence and Vmax was calculated (mean±Std. dev; n=3). For DAPI staining, 293T cells were fixed, washed with PBS, and stained with 0.1 mg/ml DAPI. The percentage of GFP-positive cells with apoptotic morphology (fragment nuclei or condensed chromatin) was determined (mean±Std. dev; n=3).
(§2) Compound II was also evaluated for its ability to inhibit BID-induced apoptosis in cell; for these experiments, HeLa cells were transfected with a plasmid encoding tBID, and effector caspase activity was measured in cell lysates 24 hours later. […] Moreover, tBID-induced cell death, as measured by caspase-3 activity, was reduced from 80±5% to 35±5% by 50 µM of compound II (FIG. 6E). […]

[4] = test system: HeLa cells transfected with a plasmid encoding tBID; test: tBID-induced cell death in transfected cells; assay type: cell-based; details: 50 µM; without compound 80±5%
Protocol: as §1, §2

tBID = target: T1, tBID (Mus musculus, UniProt P70444); test: tBID association with isolated mitochondria (immunoblot with BID antibody); assay type: biochemical; details: at 20 μM
T1 construct: tBID was produced by cleavage of purified BID with caspase-8, as known in the art; made in house; host or cells: E. coli BL21 (BID), then cleaved in vitro with caspase-8
T1 sequence (P70444 60-195 limits assumed): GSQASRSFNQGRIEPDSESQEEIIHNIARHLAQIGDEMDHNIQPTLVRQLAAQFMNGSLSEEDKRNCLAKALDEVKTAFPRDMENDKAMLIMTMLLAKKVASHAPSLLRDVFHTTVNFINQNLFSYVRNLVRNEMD
T1 sequence (P70444 1-59 partner limits assumed): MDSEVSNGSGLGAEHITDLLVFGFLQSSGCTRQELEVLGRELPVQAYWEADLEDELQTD
Protocol: Compounds II-IX were tested in vitro for their ability to inhibit BID-mediated release of Smac using mitochondria isolated from HeLa cells (FIG. 6A). The first lane represents mitochondria incubated without tBID. All others received 100 ng tBID without or with compounds. Each compound was tested at a concentration of 50 μM. […] To preliminarily investigate the mechanism by which compound II reduces Smac-release from isolated mitochondria, the tBID protein was treated with different concentrations of BI-6C9, after which it was incubated with mitochondria, followed by analysis of the bound and unbound fractions by immunoblotting using BID antibody. The concentration of mitochondria-bound tBID diminished in response to increasing concentrations of compound II.

Row | Structure (SMILES) | concentration range of dose-dependent neuroprotective effect ([1]; 1 hour pretreatment, glutamate 20 μM, 24 hours, Hoechst 33342 apoptotic nuclei) [µM] | toxicity to primary hippocampal neurons ([1]; at higher concentrations (20 μM)) | nuclear translocation of AIF [2] | reduction of caspase-3 activity in tBID-transfected cells ([3]; 50 µM, 24 hours after transfection) [fold] | caspase activity in tBID-transfected cells ([3]; 100 µM) | tBID-induced cell death [4] [%] | inhibition of tBID association with isolated mitochondria (tBID)
1 | Nc1ccc(Sc2ccc(NC(=O)CNC(=O)c3ccc(O)cc3O)cc2)cc1 [Compound I, N-((4-(4-aminophenylthio)phenylcarbamoyl)methyl)-2,4-dihydroxybenzamide] | 0.2 to 2 | some toxicity | prevented | – | – | – | –
2 | COc1ccc(S(=O)(=O)NCCCC(=O)Nc2ccc(Sc3ccc(N)cc3)cc2)cc1 [Compound II, N-[4-(4-amino-phenylsulfanyl)-phenyl]-4-(4-methoxy-benzenesulfonylamino)-butyramide] | – | – | – | ~4 | totally blocked | 35±5 | effective
